Assay results taken from article PMC11092066, “Novel analogues of a nonnucleoside SARS-CoV-2 RdRp inhibitor as potential antivirotics” (Beilstein Journal of Organic Chemistry, 2024).

Molecular target: SARS-CoV-2 RdRp (nsp12, nsp7, nsp8 polymerase complex) (Severe acute respiratory syndrome coronavirus 2, UniProt P0DTD1)
Experiment: biochemical
Type: biochemical
Conditions: for BEI (binding efficiency index): calculated as pIC50 [mol/L]/MW [kDa] from SARS-CoV-2 RdRp IC50; for IC50: recombinant RdRp: 1 μM nsp12, 3 μM nsp7, 3 μM nsp8, 0.5 μM template/primer RNA, 10 μM NTPs, 1 h at 30 °C, GraphPad fit

Cn1cc(C(=O)N[C@@H](Cc2ccc(O)cc2)C(=O)O)cc(-c2ccccc2)c1=O [3a]
BEI (binding efficiency index): 9.9

Cn1cc(C(=O)N[C@@H](Cc2ccc(O)cc2)C(=O)O)cc(-c2cccnc2)c1=O [3b]
BEI (binding efficiency index): 9.4 | IC50: 204 µM

Cn1cc(C(=O)N[C@@H](Cc2ccc(O)cc2)C(=O)O)cc(-c2ccsc2)c1=O [3c]
BEI (binding efficiency index): 10.2 | IC50: 88.1 µM

O=C(N[C@@H](Cc1ccc(O)cc1)C(=O)O)c1cc(-c2ccccc2)c(=O)n2ccsc12 [4a]
BEI (binding efficiency index): 9.3 | IC50: 88.1 µM

Cc1nn2c(=O)c(-c3ccccc3)cc(C(=O)N[C@@H](Cc3ccc(O)cc3)C(=O)O)c2s1 [4b]
BEI (binding efficiency index): 8.8 | IC50: 113 µM

O=C(N[C@@H](Cc1ccc(O)cc1)C(=O)O)c1cc(-c2ccccc2)c(=O)n2c1sc1ccc(OC3CCCCC3)cc12 [compound 1, HeE1-2Tyr, reference compound]
BEI (binding efficiency index): 7.8

O=C(N[C@@H](Cc1ccc(O)cc1)C(=O)O)c1cc(-c2ccccc2)c(=O)n2c1oc1ccc(OC3CCCCC3)cc12 [compound 2]
inhibitory activity against SARS-CoV-2 RdRp (in words) (primer extension polymerase assay): devoid of any activity

O=C(N[C@@H](Cc1ccc(O)cc1)C(=O)O)c1cc(-c2ccccc2)c(=O)n(-c2cc(OC3CCCCC3)ccc2O)c1O [compound 16]
BEI (binding efficiency index): 6.7 | IC50: 114 µM
